Measurements as given in patent publication US20220177538A1, “CO-AGONISTS AT GLP-1 AND GIP RECEPTORS SUITABLE FOR ORAL DELIVERY” (Novo Nordisk A/S, priority 2020, published 2022).
Like-named read-outs stand apart in the source and are kept apart here. Marks after values point to notes of the source that are not given here. Starred links: 1 amine or outer side, 2 acyl side, 3 side chain; linkers in the order of their positions; H or OH if unused. Non-standard residues stand in square brackets, D forms with d. Residues, ends and D or L forms follow the SMILES beside them. Groups on a side chain read outwards from the residue. *: point of attachment. C20 diacid = O=C(O)CCCCCCCCCCCCCCCCCCC(=O)*; C18 diacid = O=C(O)CCCCCCCCCCCCCCCCC(=O)*; γGlu = O=C(O)[C@H](CCC(=O)[*:2])N[*:1]; εLys = N[C@@H](CCCCN[*:1])C(=O)[*:2]; Aib = CC(C)(N)C(=O)O

Experiments:
human GIP receptor = molecular target: T1, human GIP receptor (Homo sapiens, UniProt P48546); test: In vitro functional potency, CRE luciferase reporter, whole BHK cells (hGIPR); type: cell-based; conditions: BHK CRE luc2P hGIPR cells
T1 construct: expressed in transfected cells; host or cells: BHK (parent line BHKTS13), clone BHK CRE luc2P hGIPR
T1 sequence (P48546 22-466): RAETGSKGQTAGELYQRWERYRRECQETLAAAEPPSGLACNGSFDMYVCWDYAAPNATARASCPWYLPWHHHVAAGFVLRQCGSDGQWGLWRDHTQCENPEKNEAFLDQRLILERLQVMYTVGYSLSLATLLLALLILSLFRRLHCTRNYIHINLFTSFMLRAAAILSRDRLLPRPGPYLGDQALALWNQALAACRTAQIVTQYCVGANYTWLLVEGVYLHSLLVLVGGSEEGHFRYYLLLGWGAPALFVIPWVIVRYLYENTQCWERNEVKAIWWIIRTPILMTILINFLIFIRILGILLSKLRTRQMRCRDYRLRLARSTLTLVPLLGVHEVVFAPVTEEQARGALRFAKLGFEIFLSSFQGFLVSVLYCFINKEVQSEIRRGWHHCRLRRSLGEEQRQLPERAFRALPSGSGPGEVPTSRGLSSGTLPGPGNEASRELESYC
Method in brief: (§1)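 Potencies are replicate means (n≥2) from non-linear log(agonist) vs response fits of CRE-driven luminescence. Cells were overnight-plated BHK CRE luc2P lines transfected with human GIPR or GLP-1R, 5000/well.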

[1] = Pharmacokinetic study in dogs after oral dosing of tablets with SNAC; type: in vivo, Beagle dogs; conditions: for half-life / Tmax: male
Experimental: The purpose of this example is to determine the half-life and plasma exposure in vivo of the compounds of the present invention after p.o. administration to beagle dogs, i.e. the terminal half-life and concentration of test substance that reaches circulation with time. This is done in a pharmacokinetic (PK) study, where these parameters of the compound in question are determined. By terminal half-life is generally meant the period of time it takes to halve a certain plasma concentration, measured after the initial distribution phase.
The amount of SNAC in the tablet composition was 100-300 mg, the amount of magnesium stearate in the tablet composition was 7.7 mg, and the target amount of each test substance in the tablet composition was 3-4 mg.
Male beagle dogs, 1-7 years of age and weighing 9-17 kg during the study period, were included in the study. The dogs were dosed in a fasting state. The dogs were group housed in pens (12 hours light: 12 hours dark), and fed individually and restrictedly once daily with Royal Canin Medium Adult dog food (Royal Canin Products, China Branch, or Brogaarden A/S, Denmark). The dogs were used for repeated PK studies with a suitable wash-out period between successive dosing. An appropriate acclimatization period was given prior to initiation of the first PK study. All handling, dosing, and blood sampling of the animals were performed by trained and skilled staff. Before the studies, the dogs were fasted overnight and from 0 to 4 hours after dosing. The dogs were restricted to water 1 hour before dosing until 4 hours after dosing, but otherwise had ad libitum access to water during the whole period.
The compositions were administered by a single oral dosing to the dogs in groups of 6-8 dogs. […] The mouth was then closed, and 10 mL of tap water was given by syringe or gavage to facilitate swallowing of the tablet.
One blood sample was drawn before dosing, and additional samples were drawn at predefined time points after dosing for up to 240 hours, such as up to 10 hours, to adequately cover the full plasma concentration-time absorption profile of the test substance. For each blood sample time point, approximately 0.8 mL of whole blood was collected in a 1.5 mL EDTA-coated tube, which was gently turned to mix the sample with EDTA. Blood samples were collected in EDTA buffer (8 mM) and then centrifuged at 4° C. 2000 g for 10 minutes. Plasma was pipetted into Micronic tubes on dry ice, and kept at −20° C. or lower until analysis. Blood samples were taken as appropriate, for example from a venflon in the cephalic vein in the front leg for the first 2 hours and then with syringe from the jugular vein for the rest of the time points. The first few drops were allowed to drain from the venflon to avoid heparin saline from the venflon in the sample.
All blood samples were collected into test tubes containing EDTA for stabilisation and kept on ice until centrifugation. Plasma was separated from whole blood by centrifugation and the plasma was stored at −20° C. or lower until analysis.
The plasma was analysed for test substance using LC-MS (Liquid Chromatography-Mass Spectrometry) as known to the person skilled in the art. […] RP-HPLC separation was achieved using a linear gradient of 1:1 acetonitrile/methanol in 1% aqueous formic acid using either: a Phenomenex Onyx Monolithic C18 column (50×2.0 mm) and a flow rate of 0.8 mL/min at 30° C.; or an Agilent Poroshell 120 SB-C18 column (50×2.1 mm, 2.7 μm) at a flow rate of 0.4 mL/min at 60° C. The mass spectrometer was operated in either positive ionization SIM mode or positive ionization PRM mode.
For each individual animal, a plasma concentration-time profile was analysed by a non-compartmental model in Pharsight Phoenix WinNonLin ver.

human GLP-1 receptor = human GLP-1 receptor (Homo sapiens, UniProt P43220); test: In vitro functional potency, CRE luciferase reporter, whole BHK cells (hGLP-1R); type: cell-based; design: expressed in transfected cells; host or cells: BHK (parent line BHKTS13), clone BHK CRE luc2P hGLP-1R; conditions: BHK CRE luc2P hGLP-1R cells
Method in brief: as §1

[2] = 0% HSA, read-out: hGIPR, CRE Luc 0% HSA EC50
[3] = hGIPR, CRE Luc 1% HSA EC50, 1% HSA
[4] = oral tablet, SNAC 100 mg, test substance 3 mg, Beagle dogs, arithmetic mean
[5] = 0% HSA, read-out: hGLP-1R, CRE Luc 0% HSA EC50
[6] = hGLP-1R, CRE Luc 1% HSA EC50, 1% HSA

Sequence of human GLP-1 receptor (P43220 24-463): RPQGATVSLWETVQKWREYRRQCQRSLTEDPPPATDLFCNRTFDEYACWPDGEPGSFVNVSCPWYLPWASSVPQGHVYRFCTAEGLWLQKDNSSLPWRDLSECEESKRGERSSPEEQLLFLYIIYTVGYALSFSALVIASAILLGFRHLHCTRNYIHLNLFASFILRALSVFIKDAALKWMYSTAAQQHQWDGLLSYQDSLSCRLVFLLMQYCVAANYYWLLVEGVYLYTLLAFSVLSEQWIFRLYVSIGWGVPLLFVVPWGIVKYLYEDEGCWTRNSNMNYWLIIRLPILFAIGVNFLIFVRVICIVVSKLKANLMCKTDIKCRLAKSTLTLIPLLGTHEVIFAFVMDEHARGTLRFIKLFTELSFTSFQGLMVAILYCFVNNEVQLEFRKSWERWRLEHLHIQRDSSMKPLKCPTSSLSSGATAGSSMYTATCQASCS

| Compound | EC50 (human GIP receptor; [2]) [nM] | EC50 (human GIP receptor; [3]) [nM] | half-life ([1]; Beagle, dog, in vivo, po) [h] | Tmax ([1]; dog, plasma, oral tablet, SNAC 100 mg, test substance 3 mg, Beagle dogs, median, read-out: Tmax) [h] | AUC/Dose [1, 4] [kg·h/L] | Cmax/Dose [1, 4] [kg/L] | EC50 (human GLP-1 receptor; [5]) [nM] | EC50 (human GLP-1 receptor; [6]) [nM] | AUC/Dose ([1]; dog, in vivo, po) | Cmax/Dose ([1]; dog, in vivo, po) | Tmax ([1]; Beagle, dog, in vivo, po) [h] |
| --- | --- | --- | --- | --- | --- | --- | --- | --- | --- | --- | --- |
| CC[C@H](C)[C@H](NC(=O)[C@H](Cc1ccccc1)NC(=O)[C@H](CCC(=O)O)NC(=O)[C@H](CCCNC(=N)N)NC(=O)[C@H](C)NC(=O)[C@H](C)NC(=O)[C@H](CCC(N)=O)NC(=O)[C@H](CCCCNC(=O)[C@@H](N)CCCCNC(=O)[C@@H](N)CCCCNC(=O)CC[C@H](NC(=O)CCCCCCCCCCCCCCCCC(=O)O)C(=O)O)NC(=O)[C@H](CCC(=O)O)NC(=O)[C@H](CC(C)C)NC(=O)[C@H](CC(C)C)NC(=O)[C@@H](NC(=O)[C@H](CO)NC(=O)[C@H](Cc1ccc(O)cc1)NC(=O)[C@H](CC(=O)O)NC(=O)[C@H](CO)NC(=O)[C@@H](NC(=O)[C@H](Cc1ccccc1)NC(=O)[C@@H](NC(=O)CNC(=O)[C@H](CCC(=O)O)NC(=O)C(C)(C)NC(=O)[C@@H](N)Cc1ccc(O)cc1)[C@@H](C)O)[C@@H](C)O)[C@@H](C)CC)C(=O)N[C@@H](CC(N)=O)C(=O)N[C@@H](Cc1c[nH]c2ccccc12)C(=O)N[C@@H](CC(C)C)C(=O)N[C@@H](CC(C)C)C(=O)N[C@@H](C)C(=O)NCC(=O)NCC(=O)N1CCC[C@H]1C(=O)N[C@@H](CO)C(=O)N[C@@H](CO)C(=O)O [Compound 20] (H-Y[Aib]EGTFTSDYSILLEK([εLys-εLys-γGlu-C18 diacid])QAAREFINWLLAGGPSS-OH) | 0.0071 | 0.247 | 56 | 2 | 10.8 | 0.21 | 0.0042 | 0.256 |  |  |  |
| CC[C@H](C)[C@H](NC(=O)[C@H](Cc1ccccc1)NC(=O)[C@H](CCC(=O)O)NC(=O)[C@H](CCCNC(=N)N)NC(=O)[C@H](C)NC(=O)[C@H](C)NC(=O)[C@H](CCC(N)=O)NC(=O)[C@H](CCCCNC(=O)[C@@H](N)CCCCNC(=O)[C@@H](N)CCCCNC(=O)CC[C@H](NC(=O)CCCCCCCCCCCCCCCCCCC(=O)O)C(=O)O)NC(=O)[C@H](CCC(=O)O)NC(=O)[C@H](CC(C)C)NC(=O)[C@H](Cc1ccc(O)cc1)NC(=O)[C@@H](NC(=O)[C@H](CO)NC(=O)[C@H](Cc1ccc(O)cc1)NC(=O)[C@H](CC(=O)O)NC(=O)[C@H](CO)NC(=O)[C@@H](NC(=O)[C@H](Cc1ccccc1)NC(=O)[C@@H](NC(=O)CNC(=O)[C@H](CCC(=O)O)NC(=O)C(C)(C)NC(=O)[C@@H](N)Cc1ccc(O)cc1)[C@@H](C)O)[C@@H](C)O)[C@@H](C)CC)C(=O)N[C@@H](CC(N)=O)C(=O)N[C@@H](Cc1c[nH]c2ccccc12)C(=O)N[C@@H](CC(C)C)C(=O)N[C@@H](CC(C)C)C(=O)N[C@@H](C)C(=O)NCC(=O)NCC(=O)N1CCC[C@H]1C(=O)N[C@@H](CO)C(=O)N[C@@H](CO)C(=O)NCC(=O)N[C@@H](C)C(=O)N1CCC[C@H]1C(=O)N1CCC[C@H]1C(=O)N1CCC[C@H]1C(=O)N[C@@H](CO)C(=O)O [Compound 16] (H-Y[Aib]EGTFTSDYSIYLEK([εLys-εLys-γGlu-C20 diacid])QAAREFINWLLAGGPSSGAPPPS-OH) | 0.0134 | 0.804 | 47 |  |  |  | 0.0031 | 0.321 | 8.6 kg·h/L | 0.21 kg/L | 1.3 |
| CC[C@H](C)[C@H](NC(=O)[C@H](Cc1ccccc1)NC(=O)[C@H](CCC(=O)O)NC(=O)[C@H](Cc1c[nH]cn1)NC(=O)[C@H](C)NC(=O)[C@H](C)NC(=O)[C@H](CCC(N)=O)NC(=O)[C@H](CCCCNC(=O)[C@@H](N)CCCCNC(=O)[C@@H](N)CCCCNC(=O)CC[C@H](NC(=O)CCCCCCCCCCCCCCCCC(=O)O)C(=O)O)NC(=O)[C@H](CCC(=O)O)NC(=O)[C@H](CC(C)C)NC(=O)[C@H](CC(C)C)NC(=O)[C@@H](NC(=O)[C@H](CO)NC(=O)[C@H](Cc1ccc(O)cc1)NC(=O)[C@H](CC(=O)O)NC(=O)[C@H](CO)NC(=O)[C@@H](NC(=O)[C@H](Cc1ccccc1)NC(=O)[C@@H](NC(=O)CNC(=O)[C@H](CCC(=O)O)NC(=O)C(C)(C)NC(=O)[C@@H](N)Cc1ccc(O)cc1)[C@@H](C)O)[C@@H](C)O)[C@@H](C)CC)C(=O)N[C@@H](CCC(=O)O)C(=O)N[C@@H](Cc1c[nH]c2ccccc12)C(=O)N[C@@H](CC(C)C)C(=O)N[C@@H](CC(C)C)C(=O)N[C@@H](C)C(=O)NCC(=O)NCC(=O)N1CCC[C@H]1C(=O)N[C@@H](CO)C(=O)N[C@@H](CO)C(=O)NCC(=O)N[C@@H](C)C(=O)N1CCC[C@H]1C(=O)N1CCC[C@H]1C(=O)N1CCC[C@H]1C(=O)N[C@@H](CO)C(=O)O [Compound 30] (H-Y[Aib]EGTFTSDYSILLEK([εLys-εLys-γGlu-C18 diacid])QAAHEFIEWLLAGGPSSGAPPPS-OH) | 0.0032 | 0.185 | 81 |  |  |  | 0.0073 | 0.267 | 6.5 kg·h/L | 0.24 kg/L | 0.8 |
| CC[C@H](C)[C@H](NC(=O)[C@H](Cc1ccccc1)NC(=O)[C@H](CCC(=O)O)NC(=O)[C@H](Cc1c[nH]cn1)NC(=O)[C@H](C)NC(=O)[C@H](C)NC(=O)[C@H](CCC(N)=O)NC(=O)[C@H](CCCCNC(=O)[C@@H](N)CCCCNC(=O)[C@@H](N)CCCCNC(=O)CC[C@H](NC(=O)CCCCCCCCCCCCCCCCC(=O)O)C(=O)O)NC(=O)[C@H](CCC(=O)O)NC(=O)[C@H](CC(C)C)NC(=O)[C@H](CC(C)C)NC(=O)[C@@H](NC(=O)[C@H](CO)NC(=O)[C@H](Cc1ccc(O)cc1)NC(=O)[C@H](CC(=O)O)NC(=O)[C@H](CO)NC(=O)[C@@H](NC(=O)[C@H](Cc1ccccc1)NC(=O)[C@@H](NC(=O)CNC(=O)[C@H](CCC(=O)O)NC(=O)C(C)(C)NC(=O)[C@@H](N)Cc1ccc(O)cc1)[C@@H](C)O)[C@@H](C)O)[C@@H](C)CC)C(=O)N[C@@H](CC(N)=O)C(=O)N[C@@H](Cc1c[nH]c2ccccc12)C(=O)N[C@@H](CC(C)C)C(=O)N[C@@H](CC(C)C)C(=O)N[C@@H](C)C(=O)NCC(=O)NCC(=O)N1CCC[C@H]1C(=O)N[C@@H](CO)C(=O)N[C@@H](CO)C(=O)NCC(=O)N[C@@H](C)C(=O)N1CCC[C@H]1C(=O)N1CCC[C@H]1C(=O)N1CCC[C@H]1C(=O)N[C@@H](CO)C(=O)O [Compound 26] (H-Y[Aib]EGTFTSDYSILLEK([εLys-εLys-γGlu-C18 diacid])QAAHEFINWLLAGGPSSGAPPPS-OH) | 0.0049 | 0.153 | 70 |  |  |  | 0.0074 | 0.595 | 27.4* kg * h/L | 0.49* kg/L | 1.2 |
